Test results as given in patent publication US7595156B2 (priority 2003, dated 2009).

How the values were obtained:
Saccharomyces cerevisiae = experiment: Antifungal activity test, growth inhibition zones; assay type: cell-based; settings: activity of the CS101 and CS102 culture mediums attributed to the variants produced in the mutant strains; FIG. 7
Procedure: FR-008 mutant strains CS101 and CS102 were added (see, FIG. 7). In FIG. 7, the left turbid zone is a zone added with Streptomyces sp. FR-008, the middle is a zone added with the mutant strain CS101, and the right is a zone added with the mutant strain CS102. […] This is caused by the polyketide variants V, VI, VIII, IX, X, XI and XII, which are produced in the mutant strains.

[1] = background statement, Liang and Zhou 1987; cited from earlier work
mosquito larva = settings: background statement, Liang and Zhou 1987; cited from earlier work

Q: With `C[C@H](C[C@H](C)[C@@H]1OC(=O)CC(=O)CCCC(=O)CCC[C@@H](O)C[C@@H](O)CC(=O)C[C@H](O)[C@H](C(=O)O)[C@@H](O)C[C@H](O[C@@H]2O[C@@H](C)[C@H](O)C(=O)[C@H]2O)/C=C/C=C/C=C/C=C/C=C/C=C/C=C/[C@@H]1C)[C@H](O)CC(=O)c1ccc(N)cc1` [polyketide XII] as the compound, how does the “antifungal activity of polyketide variants” value (Saccharomyces cerevisiae) read?
A: antifungal activity

Q: With `C[C@H](C[C@H](C)[C@@H]1OC(=O)CC(=O)CCCC(=O)C[C@@H](O)C[C@@H](O)C[C@@H](O)C[C@]2(O)C[C@H](O)[C@H](C(=O)O)[C@H](C[C@H](O[C@@H]3O[C@@H](C)[C@H](O)[C@@H](N)[C@H]3O)/C=C/C=C/C=C/C=C/C=C/C=C/C=C/[C@@H]1C)O2)[C@H](O)CC(=O)c1ccc(N)cc1` [FR-008 polyketide] as the compound, how does the antifungal activity [1] read?
A: antifungal activity

Q: What about the “toxicity against mosquito larva” value (mosquito larva) of the same compound?
A: high toxicity
